Test [1] addresses GSK-3β (Oryctolagus cuniculus, UniProt A0A5F9DUX8). In words: In vitro GSK-3 inhibition assay (phosphorylation of PGS-1 peptide substrate). It counts as biochemical, rabbit. The note with it: for Inhibitor functionality: GSK-3 inhibitor; for GSK-3 inhibition (in words): in vitro, cpL803-mts tested at 0-300 μM. As for the experimental part: In vitro inhibition assays: Purified recombinant rabbit GSK-3β (Eldar-Finkelman et al., 1996) was incubated with peptide substrate PGS-1 ([…](p)EDEEE) (SEQ ID NO:15) and with a peptide inhibitor at indicated concentrations. The reaction mixture included Tris 50 mM (pH=7.3), 10 mM MgAc, ^32P[γ-ATP] (100 μM), 0.01% β-mercaptoethanol, and was incubated for 10 minutes at 30° C. Reactions were spotted on phosphocellulose paper (p81), washed with 100 mM phosphoric acid, and counted for radioactivity (as described in Eldar-Finkelman et al., 1996).

The target in test [2] is T1, Cdc2 (Homo sapiens, UniProt P06493).
T1 construct: purchased New England BioLabs (Beverly, Mass.)
In words: Effect of L803 on Cdc2 activity (histone H1 substrate). The test is classed as biochemical. To be noted: L803 200 μM. As for the experimental part: The effect of L803 (200 μM) on other protein kinases was tested by incubating Cdc2 (1 unit) with a reaction mixture similar to that described hereinabove and containing histone H1 substrate (5 μg). The reactions were boiled with SDS sample buffer, separated on gel electrophoresis and autoradiographed.

Test [3] deals with glycogen synthase. In words: Glycogen synthase activity in HEK 293 cells. It counts as cell-based. The text has this:
Glycogen synthase activity in HEK 293 cells: To test the impact of the conjugates of the present invention in intact cells, the membrane preamble L803 inhibitor L803-mts (N-Myristol-GKEAPPAPPQS(p)P) (SEQ ID NO:16) and two similarly modified respective controls LE803-mts (N-Myristol-GKEAPPAPPQSEP) (SEQ ID NO:17) and LS803-mts (N-Myristol-GKEAPPAPPQSP) (SEQ ID NO:18), in which the phosphorylated serine was replaced with glutamic acid (that usually mimics a phosphorylated group) or a serine residue, respectively, were designed and synthesized.
HEK 293 cells were grown in 10 cm plates with Dulbecco's modified Eagle medium (DMEM) supplemented with 10% fetal calf serum (FCS). On the day of the experiment, cells were incubated with low glucose medium supplemented with 0.5% FCS for 1 hour, followed by the addition of the conjugate L803-mts or its respective controls LE803-mts and LS803-mts at various concentrations, for additional 2.5 hours. A vehicle control of DMSO (0.1% DMSO) was also tested. […] The reactions were then spotted on ET31 (Whatman) papers, washed with 66% ice-cold ethanol, and counted for radioactivity. Glycogen synthase assays were measured in the presence of 0.1 mM glucose-6-phosphate (G6P). […]

Test [4] deals with mouse adipocytes. In words: Glucose uptake in isolated adipocytes. It counts as cell-based. The method, then: Glucose uptake in isolated adipocytes: Mice adipocytes were isolated from epididymal fat pad by digestion with 0.8 mg/ml collagenase (Worthington Biochemical) as described previously (Lawrence et al., 1977). Digested fat pads were passed through nylon mesh and cells were washed 3 times with Krebs-bicarbonate buffer (pH=7.4) containing 1% bovine serum albumin (Fraction V, Boehringer Mannheim, Germany), 10 mM HEPES (pH=7.3), 5 mM glucose and 200 nM adenosine. Cells were incubated with L803-mts or LE803-mts at indicated concentrations for 1 hour, followed by addition of 2-deoxy [^3H] glucose (0.5 μci/vial) for 10 minutes. The assay was terminated by centrifugation of cells through dinonylphthalate (ICN, USA). ^3H was thereafter quantitated by liquid scintillation analyzer (Packard). Nonspecific uptake of 2-deoxy-[^3H] glucose was determined by the addition of cytochalasin B (50 μM) 30 minutes prior to the addition of radioactive material.
In another set of experiments, adipocytes were treated with various concentrations of L803-mts 1 hour before addition of sub-optimal concentration of insulin (5 nM). Glucose uptake was determined as described above.

Test [5] is described as follows: Glucose tolerance test in fasted C57Bl/6J mice. The test is classed as in vivo. To be noted: vs control peptide. As for the experimental part: Glucose tolerance tests: Glucose tolerance tests were performed in overnight fasted C57Bl/6J mice (12 hours). L803-mts or LE803-mts were administrated intraperitoneally (i.p.) to mice (400 nmol peptide), glucose (1 gram/kg) was injected i.p. one hour thereafter and blood samples were collected from tail vein at various time points. Blood glucose levels were immediately measured by Sugar Accutrend Sensor,(Roche, Germany)).

Test [6] can be described thus: Forced swimming test (FST). It counts as in vivo, C57BL/6J mice. The note with it: vs control-treated animals. The method, then: (§1) Forced Swimming Test (FST): C57BL/6J mice were housed in individual cages with free access to water in a temperature-controlled facility with a 12 hours light/dark cycle. Animals at age 14-16 weeks were used, and each experimental group consisted of randomly chosen 10-20 mice. At day one, mice were subjected to pre-FST (see below). At day two, mice were anesthetized with halothane (inhalation) and were unilaterally intracerebroventricularly injected (i.c.v., 1 μl of 25 mM stock solution) with L803-mts or a scrambled control peptide (cpL803-mts). Animals were subjected to FST once 1, 3, and 12 hours after reagents were administrated. The FST procedure used was similar to that initially described by Porsolt et al. (1977). Briefly, animals were placed at day one in a large cylinder (30 cm×45 cm) of 25° C. water for a 15-minutes period. At day two (24 hours later), treated mice were placed in the cylinder of water for a 6-minutes period. The duration of immobility was monitored during the last 4 minutes of the 6-minute test. Immobility period was defined as the time spent by the animal floating in the water without struggling and making only those movements necessary to keep its head above the water. All testing took place between 11:00 and 15:00. After completion the FST, mice were scarified, and hippocampuses were removed, frozen in liquid nitrogen, and stored at −80° C. Animal care followed the institutional animal care and used committee.

Test [7] relates to β-catenin. In words: β-catenin levels in mouse hippocampus extracts (Western blot). It counts as in vivo. As for the experimental part: as §1
Hippocampus extracts: Hippocampus tissue was homogenized with ice cold buffer H (50 mM β-glycerophosphate pH=7.3, 10% glycerol, 1 mM EGTA, 1 mM EDTA, 10 mM NaF, 5 mM NaPPi, 25 μg/ml leupeptin, 25 μg/ml aprotinin, 500 nM microcystine LR and 1% Triton X100). […] Equal amounts of proteins (30 μg) as determined by Bradford analysis (Bradford, […]) were boiled with Laemmli sample buffer and subjected to gel electrophoresis (10% polyacrylamide gel), transferred to nitrocellulose membranes, and immunoblotted with specific monoclonal antibodies for β-catenin (Transduction laboratories, USA).

Test [8] addresses T2, GSK-3 (Oryctolagus cuniculus, UniProt G1T8E2).
T2 construct: made in house
In words: In vitro test of peptides as GSK-3 substrates. It counts as biochemical, rabbit. The note with it: S2(p) of p9CREB replaced.

Square brackets hold non-standard residues; d marks the D form. Ends that are not written are not given here. Peptide text beside a SMILES is read from it. * marks the point of attachment. pY = N[C@@H](Cc1ccc(OP(=O)(O)O)cc1)C(=O)O; Myristoyl = CCCCCCCCCCCCCC(=O)*; pS = N[C@@H](COP(=O)(O)O)C(=O)O

GSK-3β, sequence (A0A5F9DUX8 1-420): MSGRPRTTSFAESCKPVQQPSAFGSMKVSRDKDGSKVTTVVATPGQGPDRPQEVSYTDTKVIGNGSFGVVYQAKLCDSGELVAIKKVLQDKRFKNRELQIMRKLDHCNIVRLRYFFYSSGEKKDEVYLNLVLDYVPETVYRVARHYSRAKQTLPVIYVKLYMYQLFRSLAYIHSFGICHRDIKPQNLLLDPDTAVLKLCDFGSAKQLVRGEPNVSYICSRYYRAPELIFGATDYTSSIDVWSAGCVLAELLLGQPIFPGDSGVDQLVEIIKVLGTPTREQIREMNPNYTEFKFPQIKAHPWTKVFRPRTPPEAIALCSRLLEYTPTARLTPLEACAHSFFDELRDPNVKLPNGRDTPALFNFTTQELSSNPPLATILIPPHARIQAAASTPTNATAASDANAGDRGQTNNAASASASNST
T2 sequence (G1T8E2 1-432): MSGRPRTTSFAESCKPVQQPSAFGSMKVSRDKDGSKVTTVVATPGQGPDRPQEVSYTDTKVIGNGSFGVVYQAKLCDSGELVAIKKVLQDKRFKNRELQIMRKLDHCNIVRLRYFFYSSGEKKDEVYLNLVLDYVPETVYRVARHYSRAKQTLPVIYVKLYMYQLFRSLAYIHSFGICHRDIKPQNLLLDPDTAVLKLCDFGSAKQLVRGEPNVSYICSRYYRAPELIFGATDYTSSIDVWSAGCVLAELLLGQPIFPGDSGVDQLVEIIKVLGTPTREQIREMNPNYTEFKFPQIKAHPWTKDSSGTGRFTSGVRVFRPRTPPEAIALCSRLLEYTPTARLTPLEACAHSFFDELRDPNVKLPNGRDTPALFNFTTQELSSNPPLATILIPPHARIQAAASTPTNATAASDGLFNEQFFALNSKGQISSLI
T1 sequence (P06493 whole entry): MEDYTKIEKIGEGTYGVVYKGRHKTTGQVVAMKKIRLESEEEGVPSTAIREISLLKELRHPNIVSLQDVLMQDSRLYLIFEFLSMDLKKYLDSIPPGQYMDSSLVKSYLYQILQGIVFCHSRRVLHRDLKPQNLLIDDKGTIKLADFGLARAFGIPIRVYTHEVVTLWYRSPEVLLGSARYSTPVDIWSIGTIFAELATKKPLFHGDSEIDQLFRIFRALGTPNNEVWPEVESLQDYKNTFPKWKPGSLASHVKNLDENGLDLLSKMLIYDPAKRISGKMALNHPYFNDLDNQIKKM
T1 sequence (P14635 whole entry partner): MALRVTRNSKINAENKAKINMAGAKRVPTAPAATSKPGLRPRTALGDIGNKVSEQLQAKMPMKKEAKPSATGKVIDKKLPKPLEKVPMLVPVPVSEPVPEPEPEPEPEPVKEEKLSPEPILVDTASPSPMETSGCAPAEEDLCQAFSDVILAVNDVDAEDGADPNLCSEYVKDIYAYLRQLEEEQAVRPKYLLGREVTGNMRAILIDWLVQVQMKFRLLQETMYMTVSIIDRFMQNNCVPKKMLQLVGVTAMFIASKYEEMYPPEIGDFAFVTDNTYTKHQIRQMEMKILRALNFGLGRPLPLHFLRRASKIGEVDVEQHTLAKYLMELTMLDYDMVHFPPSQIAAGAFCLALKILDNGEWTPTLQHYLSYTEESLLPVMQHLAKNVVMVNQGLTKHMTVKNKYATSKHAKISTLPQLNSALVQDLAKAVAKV

Turning to `CC[C@H](C)[C@H](N)C(=O)N[C@@H](CC(C)C)C(=O)N[C@@H](C)C(=O)N[C@@H](CCCNC(=N)N)C(=O)N[C@@H](CCCNC(=N)N)C(=O)N1CCC[C@H]1C(=O)N[C@@H](COP(=O)(O)O)C(=O)N[C@@H](Cc1ccc(O)cc1)C(=O)N[C@@H](CCCNC(=N)N)C(=O)O` [Peptide 6, ILARRPS(p)YR] (H-ILARRP[pS]YR-OH), in test [1], the Inhibitor functionality result is on record as “* (weak inhibition activity (IC50 > 800 μM))” and the “GSK-3 inhibition (in words)” value was “eliminated the inhibitory capacity”.
Consider `C[C@H](NC(=O)[C@H](CCC(=O)O)NC(=O)[C@@H](N)CCCCN)C(=O)N1CCC[C@H]1C(=O)N1CCC[C@H]1C(=O)N[C@@H](C)C(=O)N1CCC[C@H]1C(=O)N1CCC[C@H]1C(=O)N[C@@H](CCC(N)=O)C(=O)N[C@@H](COP(=O)(O)O)C(=O)N1CCC[C@H]1C(=O)O` [Peptide 9, KEAPPAPPQS(p)P] (H-KEAPPAPPQ[pS]P-OH; N-terminus and C-terminus assumed), for which the “Inhibition of cdc2 (in words)” value in test [2] is given as “not inhibited”.
As to `C[C@H](NC(=O)[C@@H]1CCCN1)C(=O)N1CCC[C@H]1C(=O)N1CCC[C@H]1C(=O)N[C@@H](CCC(N)=O)C(=O)N[C@@H](COP(=O)(O)O)C(=O)N1CCC[C@H]1C(=O)O` [Peptide 12, PAPPQS(p)P] (H-PAPPQ[pS]P-OH), in test [1], the Inhibitor functionality entry is “* (weak inhibition activity (IC50 > 800 μM))”.
For the molecule `CCCCCCCCCCCCCC(=O)NCC(=O)N[C@@H](CCCCN)C(=O)N[C@@H](CCC(=O)O)C(=O)N[C@@H](C)C(=O)N1CCC[C@H]1C(=O)N1CCC[C@H]1C(=O)N[C@@H](C)C(=O)N1CCC[C@H]1C(=O)N1CCC[C@H]1C(=O)N[C@@H](CCC(N)=O)C(=O)N[C@@H](COP(=O)(O)O)C(=O)N1CCC[C@H]1C(=O)O` [Peptide L803-mts, N-Myristol-GKEAPPAPPQS(p)P] (Myristoyl-GKEAPPAPPQ[pS]P-OH; C-terminus assumed), in test [3], the “Concentrations inhibiting endogenous GSK-3” value was in the range of 10 to 40 µM. In test [3] (2.5 hours, compared with cells treated with LE803-mts or LS803-mts), the “Increase of glycogen synthase activity” value was 2.5 fold. Further, the “Effect on insulin-induced glucose uptake (in words)” value in test [4] (L803-mts 1-10 μM followed by sub-optimal insulin (5 nM)) is reported as “additive effect”. In addition, the “Increase of 2-deoxyglucose incorporation” value in test [4] (mouse adipocytes, no insulin, compared with cells treated with LE803-mts or LS803-mts) is on record as “approximately 2.5 fold”. Moreover, the “Reduction in the blood glucose peak and in glucose levels 1 and 2 hours after glucose” value in test [5] (400 nmol i.p. one hour before glucose 1 gram/kg) was determined as 20%. For the same molecule, the “Glucose tolerance (in words)” value in test [5] (400 nmol i.p.) is given as “better glucose tolerance”. The figures for the “Shortening of immobility time” value in test [6] (FST 1 hour after i.c.v. injection), in test [6] (FST 3 hours after i.c.v. injection) and in test [6] (FST 12 hours after i.c.v. injection) were 37%±3.7%, 44%±5.7% and 16%±0.6%, respectively. Further, the “Increase in β-catenin levels” value in test [7] (1 hour after i.c.v. L803-mts) is 20%; in test [7] (3 hours after i.c.v. L803-mts), 30%; in test [7] (12 hours post administration) it was 50%.
With ILSRPPEYR [Peptide 3], in test [8], the “Phosphorylation by GSK-3 (in words)” value is recorded as “eliminated the capacity of GSK-3 to phosphorylate these peptides”.
Take “ILSRPPY(p)YR (ILSRPP[pY]YR; also: phosphotyrosine, Y7 or Y8 (written PPY(p)YR)) [Peptide 4]”: the “Phosphorylation by GSK-3 (in words)” value in test [8] is reported as “eliminated the capacity of GSK-3 to phosphorylate these peptides”.
Regarding KEEPPAPPQEP [Peptide 11], the “GSK-3 inhibition (in words)” value in test [1] is “inactive inhibitors”.
The same measure, in the same setting: to KEEPPAPPQSP [Peptide 10] belongs “inactive inhibitors”.
Regarding “N-Myristol-GKEAPPAPPQSEP (Myristoyl-GKEAPPAPPQSEP) [LE803-mts, control conjugate, phosphorylated serine replaced with glutamic acid, reference compound]”, the “GSK-3 inhibition (in words)” value in test [1] was “do not inhibit”.
The same measure, in the same setting: to “N-Myristol-GKEAPPAPPQSP (Myristoyl-GKEAPPAPPQSP) [LS803-mts, control conjugate, phosphorylated serine replaced with serine, reference compound]” belongs “do not inhibit”.
As for insulin [reference compound], in test [4] (mouse adipocytes, insulin 10 nM, data not shown), the “Maximum stimulation of glucose uptake by insulin” value stood at 3 fold.

Values taken from patent publication US7446092B2, “Glycogen synthase kinase-3 inhibitors” (Tel Aviv University Future Technology Development L.P., priority 2002, dated 2008).
